Assay results published in patent US11660280B2, “Treatment of drug resistant gliomas” (OKLAHOMA MEDICAL RESEARCH FOUNDATION, priority 2017, dated 2023).

Columns and labels:
HIF-1α = test: ELISA protein level in human GBM cell lysates; format: cell-based
Method: (§1) ELISA for HIF-1a, MPG and MGMT. Protein expressions were assessed in all six glioma cell lines for all four groups of treatment (cell alone, cells with TMZ, cells with OKN, cells with combined OKN and TMZ). Cells were lysed before assaying. In brief, cells were washed by cold PBS gently, and then detached with trypsin, and collected by centrifugation at 1,000×g for 5 minutes. Then, cells were washed three times in cold PBS, then suspended in fresh lysis buffer. Lysates were centrifuged at 1,500×g for 10 minutes at 2-8° C. to remove cellular debris.
(§2) The assay is based on the sandwich ELISA principle. Each well of the supplied microtiter plate has been pre-coated with a target specific capture antibody. Standards or samples are added to the wells and the target antigen binds to the capture antibody. Unbound Standard or sample is washed away. A biotin-conjugated detection antibody is then added which binds to the captured antigen. Unbound detection antibody is washed away. An Avidin-Horseradish Peroxidase (HRP) conjugate is then added which binds to the biotin. Unbound Avidin-HRP conjugate is washed away. A TMB substrate is then added which reacts with the HRP enzyme resulting in color development. A sulfuric acid stop solution is added to terminate color development reaction and then the optical density (OD) of the well is measured at a wavelength of 450 nm±2 nm. The OD of an unknown sample can then be compared to an OD standard curve generated using known antigen concentrations in order to determine its antigen concentration.
(§3) The antigen concentration determined from ELISA was then normalized to the total protein concentration of each cell lysate in order to have comparison between groups. ELISA Kits for N-Methylpurine DNA Glycosylase (MPG) and for Hypoxia Inducible Factor 1 Alpha (HIF1a) were purchased from CLOUD-CLONE CORP.(CCC) and for Human MGMT from LifeSpan Biosciences, Inc.

MPG = test: ELISA protein level in human GBM cell lysates; format: cell-based
Method: as §1, §2, §3

MGMT = test: ELISA protein level in human GBM cell lysates; format: cell-based
Method: as §1, §2, §3

F98 tumors = test: RT-PCR of RNA isolated from F98 untreated and OKN-007-treated tumors; format: in vivo, rat; conditions: OKN-007-treated vs untreated F98 tumors
Method: Mice and Treatments. Animal studies were conducted in accordance to the OMRF IACUC (Institutional Animal Care and Use Committee) policies, which follow NIH guidelines. For the F98 rat glioma cell implantation model, F98 cells (10^5 in 10-μ1 volume) were intracerebrally implanted with a stereotaxic device (2 mm lateral and 2 mm anterior to the bregma, and at a 3 mm depth) in a total of 15 Fischer 344 rats (male 200-250 gm). The animals were divided into two groups once tumors reached 10-20 mm^3 in volume (as determined by MRI): OKN-007 treated (n=8) and untreated (UT) (n=7) groups. Rats were treated until tumors reached 200-250 mm^3 in volume or for a total of 4-6 weeks. For the G55 GBM cell implantation model, two-month-old male nude mice (Hsd:Athymic Nude-Foxnlnu mice; Harlan Inc., Indianapolis, IN) were implanted intracerebrally with human G55 xenograft cells (1×10^6) per mL suspended in 4 μL in cell culture media of 1% agarose solution. Once tumors reached 10-15 mm^3 (determined via MRI), mice were either treated daily with OKN-007 in the drinking water (150 mg/kg; 0.20% w/v for a 20 g mouse), or every 3 days with TMZ (30 mg/kg). OKN-007 was dissolved in water and made fresh every 2 days. Water bottles were weighed, and the amount of OKN-007 consumed per mouse was determined. […] The average intake of OKN-007 was approximately 140-150 mg/kg/day/mouse. TMZ was dissolved in 5% DMSO and 5% solutol-15 in sterile saline and administered via gavage. Mice were treated until the tumors reached 100-150 mm^3 or for a total of 4-6 weeks. All groups were stratified to ensure that tumor sizes were similar before initiation of treatment.
RNA isolation and preparation. For the rat F98 glioma study, all rats were euthanized after the last MRI examination. The brain of each animal was removed, and snap frozen in liquid nitrogen, before storage in a −80° C. freezer. Total RNA from all tumor tissues from all treatment groups was purified with an RNeasy Mini Kit (Qiagen), and quantified by spectrophotometry (Nanodrop). cDNA was synthesized using SuperScript IV Reverse Transcriptase Kit (Invitrogen).

## CC(C)(C)[N+]([O-])=Cc1ccc(S(=O)(=O)O)cc1S(=O)(=O)O [OKN-007, 2,4-disulfonyl phenyl tert-butyl nitrone]
HIF-1α; G55 cells, UT 0.14
  ELISA protein level HIF-1α: 0.19 ng/mg cell lysate
HIF-1α; LN18 cells, UT 0 76
  ELISA protein level HIF-1α: 0.92 ng/mg cell lysate
HIF-1α; LN229 cells, UT 0.68
  ELISA protein level HIF-1α: 0.66 ng/mg cell lysate
HIF-1α; T98 cells, UT 0.42
  ELISA protein level HIF-1α: 0.58 ng/mg cell lysate
HIF-1α; U138 cells, UT 0.40
  ELISA protein level HIF-1α: 0.33 ng/mg cell lysate
HIF-1α; U251 cells, UT 0.30
  ELISA protein level HIF-1α: 0.61 ng/mg cell lysate
MPG; G55 cells, UT 1.15
  ELISA protein level MPG: 1.41 ng/mg cell lysate
MPG; LN18 cells, UT 2.18
  ELISA protein level MPG: 2.38 ng/mg cell lysate
MPG; LN229 cells, UT 2.34
  ELISA protein level MPG: 1.88 ng/mg cell lysate
MPG; T98 cells, UT 3.04
  ELISA protein level MPG: 3.61 ng/mg cell lysate
MPG; U138 cells, UT 1.30
  ELISA protein level MPG: 1.22 ng/mg cell lysate
MPG; U251 cells, UT 2.70
  ELISA protein level MPG: 2.77 ng/mg cell lysate
MGMT; G55 cells, UT 0.37
  ELISA protein level MGMT: 0.31 ng/mg cell lysate
MGMT; LN18 cells, UT 1.23
  ELISA protein level MGMT: 0.98 ng/mg cell lysate
MGMT; LN229 cells, UT 0.67
  ELISA protein level MGMT: 0.69 ng/mg cell lysate
MGMT; T98 cells, UT 0.62
  ELISA protein level MGMT: 0.84 ng/mg cell lysate
MGMT; U138 cells, UT 0.77
  ELISA protein level MGMT: 0.75 ng/mg cell lysate
MGMT; U251 cells, UT 0.92
  ELISA protein level MGMT: 0.91 ng/mg cell lysate
F98 tumors; Down-regulated
  RT-PCR fold change in gene expression ADAMTS1: 3.57 fold
  RT-PCR fold change in gene expression CD44: 3.03 fold
  RT-PCR fold change in gene expression CDH3: 3.70 fold
  RT-PCR fold change in gene expression COL1A1: 2.27 fold
  RT-PCR fold change in gene expression COL2A1: 2.33 fold
  RT-PCR fold change in gene expression COL3A1: 3.13 fold
  RT-PCR fold change in gene expression COL4A1: 2.94 fold
  RT-PCR fold change in gene expression COL4A2: 2.63 fold
  RT-PCR fold change in gene expression COL5A1: 3.33 fold
  RT-PCR fold change in gene expression COL6A1: 2.94 fold
  RT-PCR fold change in gene expression COL8A1: 2.33 fold
  RT-PCR fold change in gene expression CTGF: 2.63 fold
  RT-PCR fold change in gene expression ECM1: 2.86 fold
  RT-PCR fold change in gene expression EMILIN1: 2.27 fold
  RT-PCR fold change in gene expression FN1: 2.63 fold
  RT-PCR fold change in gene expression ITAD: 2.38 fold
  RT-PCR fold change in gene expression ITGA2: 3.7 fold
  RT-PCR fold change in gene expression ITGB3: 2.13 fold
  RT-PCR fold change in gene expression ITGB4: 3.70 fold
  RT-PCR fold change in gene expression LAMC1: 2.33 fold
  RT-PCR fold change in gene expression MMP1 A: 4.17 fold
  RT-PCR fold change in gene expression MMP2: 2.86 fold
  RT-PCR fold change in gene expression MMP3: 3.85 fold
  RT-PCR fold change in gene expression MMP7: 2.86 fold
  RT-PCR fold change in gene expression MMP8: 3.85 fold
  RT-PCR fold change in gene expression MMP9: 7.14 fold
  RT-PCR fold change in gene expression MMP12: 16.67 fold
  RT-PCR fold change in gene expression MMP13: 50.00 fold
  RT-PCR fold change in gene expression MMP14: 2.86 fold
  RT-PCR fold change in gene expression POSTN: 33.33 fold
  RT-PCR fold change in gene expression RGDC: 3.45 fold
  RT-PCR fold change in gene expression SELE: 2.86 fold
  RT-PCR fold change in gene expression SELL: 2.13 fold
  RT-PCR fold change in gene expression SELP: 2.13 fold
  RT-PCR fold change in gene expression SPP1: 8.33 fold
  RT-PCR fold change in gene expression TGFBI: 2.22 fold
  RT-PCR fold change in gene expression THBS2: 3.7 fold
  RT-PCR fold change in gene expression TIMP1: 3.45 fold
F98 tumors; Up-regulated
  RT-PCR fold change in gene expression CDH4: 4.06 fold
  RT-PCR fold change in gene expression CNTN1: 15.03 fold
  RT-PCR fold change in gene expression HAPLN1: 3.1 fold
  RT-PCR fold change in gene expression MMP16: 4.72 fold
  RT-PCR fold change in gene expression NCAM2: 11.63 fold
  RT-PCR fold change in gene expression SGCE: 8.06 fold
  RT-PCR fold change in gene expression SPOC1: 11.08 fold
  RT-PCR fold change in gene expression SYT1: 19.03 fold
  RT-PCR fold change in gene expression VTN: 3.03 fold
